Measured values as given in patent US8293212B2, “Inhibitor screening method and atopic dermatitis like symptom inducing method which utilizes induction of production of interleukin 18 by keratinocyte and utilization of same” (Japan Science & Technology Agency, priority 2003, dated 2012).
Where a SMILES comes first, the peptide text is derived from it. The star is where a group is joined. Cbz = O=C(OCc1ccccc1)*; CH2F = FC*

Experiments:
NC/Nga mice = assay: Induction of AD-like skin lesion by application on shaven backs of NC/Nga mice; format: in vivo, mouse; conditions: 4% of SDS, SpA 200 μg/day, alone or as mixture
PAM212 cells = assay: IL-18 secretion and IFN-γ-inducing bioactivity of IL-18 from PAM212 cells incubated with SpA; format: cell-based, mouse; conditions: PAM212 cells incubated with SpA 24 hours (FIG. 7A)
Method: (§1) Concentration of IL-18 was determined by an ELISA kit manufactured by MBL. IL-4, IFN-γ, and IL-1β were determined by an ELISA kit manufactured by Genzyme. An ELISA kit for IL-5 was purchased from Endogen. IgE serum level was determined by an ELISA kit manufactured by pharMingen. IFN-γ induction ability of IL-18 was determined by bioassay using clones of IL-18-responsive mouse NK cells (see Non-Patent Document 6 and others)
To be specific, LNK5E6 cells, having higher responsiveness to stimulation with IL-18 in terms of IFN-γ production than LNK5E3 cells (see Non-Patent Document 6), were incubated with a variety of samples and 100 pg/ml IL-12, in the presence or absence of anti-IL-18 antibody (50 μg/ml), for 48 hours. […]
KC (5×10^5/ml) or PAM212 cells (2×10^5/ml) were incubated with a variety of doses of SpA and 1 μg/ml LPS or mFasL (1×10^6/ml) for 24 hours. […] IL-18 concentration and its activity in each supernatant were determined by ELISA and bioassay respectively. […]
To be specific, PAM212 cells (culture strain of KC of mice) were incubated with or without SpA for 24 hours, and the IL-18 concentration and IFN-γ-inducing bioactivity of IL-18 in each supernatant were determined by ELISA and bioassay respectively. […] ND stands for “not detected”.

[1] = test system: KC from wild-type B6 mice; assay: IL-18 secretion from newly isolated KC after stimulation, ELISA of supernatant; format: cell-based, mouse
Method: as §1
In order to delete DC, KC were incubated with CD11c microbeads (manufactured by Miltenyi Biotec), and then CD 11c^+ cells were depleted using an AutoMACS™ separator.
KC (5×10^5/ml) or PAM212 cells (2×10^5/ml) were incubated with a variety of doses of SpA and 1 μg/ml LPS or mFasL (1×10^6/ml) for 24 hours. In some examples, KC of wild-type mice were incubated with 100 μg/ml SpA in the presence of 20 μM of ZVAD or YVAD for 24 hours. IL-18 concentration and its activity in each supernatant were determined by ELISA and bioassay respectively. In some examples, KC were incubated with 500 μg/ml SpA for 4 hours, and total RNA was extracted, followed by RT-PCR (see Tsutsui, H., Matsui, K., Kawada, N., Hyodo, Y., Hayashi, N., Okamura, H., Higashino, K. and Nakanishi, K. 1997. IL-18 accounts for both TNF-α and Fas ligand-mediated hepatotoxic pathways in endotoxin-induced liver injury in mice. J. Immunol. 159:3961). As to primers for IL-18, IL-12p35, IL-12p40, or β-actin, and PCR conditions for individual cytokines, see the Tsutsui et al. […]
To be specific, KC or CD11c^+ cell-depleted KC prepared from skin of wild-type B6 mice were analyzed for their expression of CD11c and MHC class II (1-A^b) by flow cytometry. These cells were incubated with or without SpA for 24 hours, and concentration of IL-18 in the resulting supernatant was measured by ELISA. […]
Further, because Kupffer cells secrete IL-18 in response to stimulation with LPS or membrane-bound Fas ligand, it was examined whether these stimuli induce IL-18 secretion from KC. […] IL-18 contained in each resulting supernatant was measured by ELISA.

KC of wild-type B6 mice = assay: IL-12 expression (RT-PCR) and IL-12 secretion (ELISA) in SpA-stimulated KC; format: cell-based, mouse
Method: (§2) KC (5×10^5/ml) or PAM212 cells (2×10^5/ml) were incubated with a variety of doses of SpA and 1 μg/ml LPS or mFasL (1×10^6/ml) for 24 hours. In some examples, KC of wild-type mice were incubated with 100 μg/ml SpA in the presence of 20 μM of ZVAD or YVAD for 24 hours. IL-18 concentration and its activity in each supernatant were determined by ELISA and bioassay respectively. In some examples, KC were incubated with 500 μg/ml SpA for 4 hours, and total RNA was extracted, followed by RT-PCR (see Tsutsui, H., Matsui, K., Kawada, N., Hyodo, Y., Hayashi, N., Okamura, H., Higashino, K. and Nakanishi, K. 1997. IL-18 accounts for both TNF-α and Fas ligand-mediated hepatotoxic pathways in endotoxin-induced liver injury in mice. J. Immunol. 159:3961). As to primers for IL-18, IL-12p35, IL-12p40, or β-actin, and PCR conditions for individual cytokines, see the Tsutsui et al.
Next, it was examined whether SpA-stimulated KC secretes IL-12 as well as IL-18. In order to detect a small amount of IL-12, total RNA were obtained from KC that had been incubated with SpA for 4 hours, and RT-PCR was performed using the RNA. […] Expression level of mRNA of IL-18, IL-12p40, IL-12p35, and β-actin out of all extracted RNA were measured by RT-PCR. […]

Kupffer cells [2] = assay: Cytokine expression and secretion of Kupffer cells after stimulation; format: cell-based, mouse; conditions: in response to SpA, data not shown
Method: Kupffer cells were prepared according to Non-Patent Document 6. Kupffer cells (1×10^6/ml) were incubated with 1 μg/ml LPS (lypopolysaccharide) for 4 hours, and their IL-18, IL-12p35, IL-12p40 and β-actin expressions were determined as mRNA levels by RT-PCR.
Next, it was examined whether SpA-stimulated KC secretes IL-12 as well as IL-18. In order to detect a small amount of IL-12, total RNA were obtained from KC that had been incubated with SpA for 4 hours, and RT-PCR was performed using the RNA. To be specific, KC and Kupffer cells of wild-type B6 mice were separately incubated in the presence/absence of 500 μg/ml SpA, and in the presence/absence of 1 μg/ml LPS for 4 hours. Expression level of mRNA of IL-18, IL-12p40, IL-12p35, and β-actin out of all extracted RNA were measured by RT-PCR. The result of the measurement is illustrated in FIG. 7D.

normal B6 mice = assay: Application of SpA on ear skin of normal B6 mice, serum IL-18/IgE and Th1/Th2 differentiation; format: in vivo, mouse
Method: Splenic CD4^+ T cells were isolated from variously treated mice using an AutoMACS™ separator (manufactured by Miltenyi Biotec). The newly isolated spleen cells were incubated with anti-CD4 beads (manufactured by Miltenyi Biotec). The purity of the CD4^+ T cells was more than 98%. The cells (1×10^6/ml) were incubated with immobilized anti-CD3ε (manufactured by PharMingen) for 48 hours. Concentrations of IFN-γ and IL-4 in each supernatant were determined by ELISA.
as §1
Solutions made by dissolving various doses of SpA in 5 μl vehicle (50% glycerol in PBS) were prepared, and the SpA solutions were applied on ear skin of wild-type mice for 14 days. For the control study, 5 μl vehicle without SpA was used. One mouse was caged to avoid effects from other mice.
To be specific, various amounts of SpA or only vehicles were applied on ear skin of normal B6 mice once a day for two weeks. After that, on day 14, serum and spleens were sampled so as to measure concentration of IL-18 or IgE. Further, splenic CD4^+ T cells from mice on which vehicle or SpA(100 μg/day) was applied were incubated with plate-bound anti-CD3 for 48 hours, and concentrations of IFN-γ and IL-4 in each supernatant were measured by ELISA. The results of the measurements are illustrated in FIGS. 6A through 6C.

Kupffer cells [3] = conditions: secretion caused by LPS or membrane-bound Fas ligand stimulation; stated as background; cited from earlier work
[4] = test system: KC of wild-type mice stimulated with SpA; assay: Effect of caspase inhibitors on IL-18 secretion from SpA-stimulated KC; format: cell-based, mouse; conditions: 20 μM inhibitor, 500 μg/ml SpA, 24 hours (FIG. 7C)
Method: as §2
To be specific, KC were prepared from wild-type mice, caspase-1-deficient mice, TLR2-deficient mice, or MyD88-deficient mice. The KC of the wild-type mice were incubated with 500 μg/ml SpA in the presence of 20μ MZVAD, 20 μM YVAD, or the same volume of DMSO(Veh) for 24 hours. On the other hand, KC from each of the mutants were incubated with 500 μg/ml SpA for 24 hours. IL-18 in each supernatant was measured by ELISA. The result is illustrated in FIG. 7C. […]

Row | Molecule | development of AD / skin lesion like AD (NC/Nga mice) | secretion of activated IL-18 (ELISA and IFN-γ-inducing bioassay) (PAM212 cells) | IL-18 produced by KC ([1]; 500 μg/ml SpA without adding DMSO, 24 hours (FIG. 7C)) [pg/mL] | IL-18 in supernatant ([1]; KC 5×10^5/ml, 24 hours, 500 μg/ml SpA, 1 μg/ml LPS or 1×10^6/ml mFasL, ND = not detected) [pg/mL] | IL-18 release from newly isolated KC in response to SpA ([1]; various amounts of SpA, 24 hours (FIG. 7B)) | IL-12p35 and IL-12p40 mRNA expression (RT-PCR) (KC of wild-type B6 mice; 500 μg/ml SpA, 4 hours (FIG. 7D)) | IL-12p40 or IL-12p70 in supernatant (ELISA) (KC of wild-type B6 mice; 24-hour incubation, data not shown) | secretion of IL-12 or IL-18 from Kupffer cells (Kupffer cells [2]) | Th1/Th2 differentiation of splenic CD4+ T cells (IFN-γ and IL-4) (normal B6 mice; SpA 100 μg/day, anti-CD3 48 hours (FIG. 6C)) | IL-12p40 and IL-12p70 in sera (ELISA) (normal B6 mice; data not shown) | serum levels of IL-18 (normal B6 mice; ear skin, once a day for two weeks, day 14 (FIG. 6A)) | serum IgE levels (normal B6 mice; ear skin, once a day for two weeks, day 14 (FIG. 6B)) | inhibition of IL-18 secretion from Kupffer cells (Kupffer cells [3]) | inhibition of secretion of IL-18 from SpA-stimulated KC [4]
1 | SpA: protein A purified from Staphylococcus aureus Cowan 1, purchased from Calbiochem | do not develop AD | secreted activated IL-18 | 28.4 ± 3.5 | 31.5 ± 3.2 | released IL-18 in a dose-dependent manner | neither IL-12p35 nor IL-12p40 were detected | not detected | did not secrete IL-12 or IL-18 | did not show preferential differentiation of Th2 cells | not detected | increased | increased in a dose-dependent manner | – | –
2 | COC(=O)C[C@H](NC(=O)[C@H](C)NC(=O)[C@@H](NC(=O)OCc1ccccc1)C(C)C)C(=O)CF [ZVAD, Z-VAD-FMK] (Cbz-Val-Ala-Asp(OMe)-CH2F) | – | – | – | – | – | – | – | – | – | – | – | – | strongly inhibit | did not inhibit
3 | CC(=O)N[C@@H](Cc1ccc(O)cc1)C(=O)N[C@H](C(=O)N[C@@H](C)C(=O)N[C@@H](CC(=O)O)C(=O)CCl)C(C)C [YVAD, Ac-YCAD-CMK] | – | – | – | – | – | – | – | – | – | – | – | – | strongly inhibit | did not inhibit
